11 molecules from publication PMC7822874, “Chemoprotective antimalarials identified through quantitative high-throughput screening of Plasmodium blood and liver stage parasites” (Scientific Reports, 2021) can be followed below.

Where two headings read alike, the source gives them in different places.

Data set [1] relates to P. falciparum Dd2 (clone B2) asexual blood stage parasites. In words: P. falciparum Dd2 asexual blood stage SYBR Green-I 72 h proliferation assay (qHTS). The class given is cell-based, Plasmodium falciparum. As to conditions: averaged P. falciparum asexual blood stage potency, log10 of AC50 in M. For orientation: In qHTS, concentration-response curves come from the screen itself.

The subject of data set [2] is P. berghei-ANKA-GFP-LucCON liver stage parasites in HepG2-A16-CD81EGFP cells. In words: P. berghei liver stage Pb-Luc assay, Method 1 (UCSD, 1536-well). In kind it is cell-based, Plasmodium berghei. As to conditions: P. berghei liver stage, averaged response (percent); for Average P. berghei 1 µM response (%): the header list (r8) defines it as the 1 µM dose.
The subject of a further data set is HepG2-A16-CD81EGFP cells. Particulars: averaged response (percent).
Another data set can be described thus: in vitro. Particulars: human, hepg2-a16-cd81egfp cells.
[3] abbreviates: HepG2, the header list (r10) describes it as the 1 µM dose.

For `COc1cc(C)cc(CN2CCC(Cc3ccccc3)CC2)c1O` [MLS001178265], the “Pf ABS Log AC50 (M)” value in data set [1] is recorded as -6.137 M. Also, in data set [2], the “Average P. berghei 3 µM response( %)” value is listed as 102% and the “Average P. berghei 1 µM response (%)” value worked out at 89%. Besides, the “Average HepG2 3 µM response( %)” value with HepG2-A16-CD81EGFP cells (HepG2, 3 µM dose) stood at 88%. Further, the “Average HepG2 3 µM response( %)” value in the data set on HepG2-A16-CD81EGFP cells (setting [3]) is 97%. Besides, in “in vitro” (% viability), the viability at 3 µM amounted to 87.6%.
Regarding `Cn1nc(C(F)(F)F)c(-c2ccc(F)cc2)c1NC(=O)Nc1ccc(F)cc1` [MLS000830769], the “Pf ABS Log AC50 (M)” value in data set [1] is on record as -5.962 M. In data set [2], the “Average P. berghei 3 µM response( %)” value was determined as 90%. In addition, the “Average P. berghei 1 µM response (%)” value in data set [2] came out at 148%. For the same molecule, the “Average HepG2 3 µM response( %)” value with HepG2-A16-CD81EGFP cells (HepG2, 3 µM dose) turned out to be 99%; in the data set with HepG2-A16-CD81EGFP cells (setting [3]), 95%. Besides, the viability at 3 µM in the data set “in vitro” (% viability) is 99%.
As to `COc1ccc(Nc2cc(C)c3ccc(O)cc3n2)cc1` [MLS000674789], the “Pf ABS Log AC50 (M)” value in data set [1] is recorded as -6.187 M. In data set [2], the “Average P. berghei 3 µM response( %)” value was 118% and the “Average P. berghei 1 µM response (%)” value was determined as 103%. For the same molecule, the “Average HepG2 3 µM response( %)” value in the data set on HepG2-A16-CD81EGFP cells (HepG2, 3 µM dose) was found to be 96%. Besides, the “Average HepG2 3 µM response( %)” value in the data set with HepG2-A16-CD81EGFP cells (setting [3]) is recorded as 88%. Besides, the viability at 3 µM in the data set “in vitro” (% viability) is 96.2%.
As to `Cc1cc(O)c(CN2CCN(c3ccccc3)CC2)cc1C` [MLS000569270], in data set [1], the “Pf ABS Log AC50 (M)” value is -5.650 M. For the same molecule, in data set [2], the “Average P. berghei 3 µM response( %)” value is 97% and the “Average P. berghei 1 µM response (%)” value was 88%. Moreover, the “Average HepG2 3 µM response( %)” value in the data set on HepG2-A16-CD81EGFP cells (HepG2, 3 µM dose) came to 107%. The “Average HepG2 3 µM response( %)” value with HepG2-A16-CD81EGFP cells (setting [3]) is reported as 102%. The viability at 3 µM in the data set “in vitro” is 107%.
In the case of `Oc1cc2c(cc1CN1CCN(c3ccccc3)CC1)CCC2` [MLS000058156], the “Pf ABS Log AC50 (M)” value in data set [1] is recorded as -5.587 M. In addition, the “Average P. berghei 3 µM response( %)” value in data set [2] was 107%. Further, the “Average P. berghei 1 µM response (%)” value in data set [2] is 92%. The “Average HepG2 3 µM response( %)” value in the data set with HepG2-A16-CD81EGFP cells (HepG2, 3 µM dose) was found to be 101%; in the data set on HepG2-A16-CD81EGFP cells (setting [3]), 102%.
Taken in the same sequence, the figures for `Cc1nn2c(c1-c1ccccc1-c1ccccc1)N(Cc1ccc(O)cc1)CCC2` [NCGC00420512] were -6.314 M, 24%, 80%, 111% and 98%.
`CCOC(=O)C1=C(C)N=c2s/c(=C/c3ccc(OCC(=O)O)cc3)c(=O)n2C1c1cc(OC)c(OC)c(OC)c1` (centres unmarked) [MLS001178475]: the “Pf ABS Log AC50 (M)” value in data set [1] is -5.737 M. Besides, the “Average P. berghei 3 µM response( %)” value in data set [2] worked out at 74%. Moreover, in data set [2], the “Average P. berghei 1 µM response (%)” value came out at 98%. Moreover, the “Average HepG2 3 µM response( %)” value with HepG2-A16-CD81EGFP cells (HepG2, 3 µM dose) is listed as 99%; in the data set on HepG2-A16-CD81EGFP cells (setting [3]), 99%.
Consider `O=C(O)c1ccc(-c2nc3cnccc3[nH]2)cc1` [NCGC00375713], for which the “Pf ABS Log AC50 (M)” value in data set [1] was -5.264 M. Also, the “Average P. berghei 3 µM response( %)” value in data set [2] was 94%. For the same molecule, the “Average P. berghei 1 µM response (%)” value in data set [2] is 106%. Further, the “Average HepG2 3 µM response( %)” value was 104% in the data set on HepG2-A16-CD81EGFP cells (HepG2, 3 µM dose) and 105% in the data set with HepG2-A16-CD81EGFP cells (setting [3]).
For `OC(CN1CCN(c2ccccn2)CC1)Cn1c2ccc(Cl)cc2c2cc(Cl)ccc21` (centres unmarked) [MLS000529159] the same measures were -5.612 M, 77%, 108%, 102% and 102%.
For `COc1ccc(-c2c3c(nc4sc(C(=O)Nc5ccc(Cl)cc5)c(N)c24)CC(C)(C)CC3=O)cc1` [NCGC00100738] the same measures were -6.425 M, 90%, 111%, 109% and 104%.
For `O=C1CC(c2ccccc2)N(Cc2ccncc2)CCCN(C(=O)Nc2ccccc2F)CCN1` (centres unmarked) [NCGC00467191], in data set [1], the “Pf ABS Log AC50 (M)” value was -5.775 M. Also, the “Average P. berghei 3 µM response( %)” value in data set [2] is on record as 73%. Further, the “Average P. berghei 1 µM response (%)” value in data set [2] was 88%. Further, the “Average HepG2 3 µM response( %)” value in the data set on HepG2-A16-CD81EGFP cells (HepG2, 3 µM dose) turned out to be 103%; with HepG2-A16-CD81EGFP cells (setting [3]), 107%.

The term viability denotes a read-out of living cells in per cent, often relative to untreated cells.
